In US20110118127A1, “MARKER GENES FOR SCREENING OF DRUG-INDUCED TOXICITY IN HUMAN CELLS AND SCREENING METHOD USING THE SAME” (priority 2009, published 2011):
Values after ≈ are worked out from the molar mass of the structure shown. Read-outs that look alike come from different tables or passages of the source.

How the values were obtained:
in vitro [1] = settings: human
Procedure: (§1) Human cell lines, BEAS-2B (ATCC, USA), JEG-3 (Korean Cell Line Bank, Korea) and HK-2 (Korean Cell Line Bank, Korea) were cultured in T 75 flask containing DMEM (Gibco-BRL, USA) supplemented with 10% FBS at the concentration of 5×10^5 cells/ml. THLE-3 cells were cultured in BEGM (Gibco-BRL, USA) supplemented with 10% FBS. HUVEC cells (ATCC, USA) were cultured in T 75 flask containing EGM-2 (CAMBREX, USA) supplemented with 5% FBS at the concentration of 5×10^5 cells/ml. […] Those drugs were dissolved in DMSO and water. The concentration of vehicle was up to 0.1% in every experiment.
(§2) MTT assay was performed with BEAS-2B, JEG-3, HK-2, THLE-3 and HUVEC according to the method of Mossman et al (J. Immunol. Methods, 65, 55-63, 1983). The cells (Table 2) in a 24-well plate were treated with each drug dissolved in DMSO or water. […] Then, the medium was eliminated and the formed formazan crystal was dissolved in 500 μl of DMSO. The mixture was aliquoted in a 96-well plate and OD54o was measured.

[2] = Cytotoxicity test (MTT assay) in THLE-3; settings: human
Procedure: as §1, §2

HepG2 = experiment: Cytotoxicity test (MTT assay) in HepG2; format: cell-based, human; settings: Table 11; HepG2 40 × 10^4 cells/well, 48 h; read-out: Cytotoxicity IC20 Conc.
Procedure: (§3) The cells (Table 2) in a 24-well plate were treated with each drug dissolved in DMSO or water. 24 and 48 hours later, 5 mg/μl of MTT (3-[4,5-dimethylthiazol-2-yl]-2,5-diphenyltetra zolium bromide) was added thereto, followed by culture at 37 for 3 hours. Then, the medium was eliminated and the formed formazan crystal was dissolved in 500 μl of DMSO. The mixture was aliquoted in a 96-well plate and OD540 was measured.

in vitro [3] = settings: human; remark: listed apart in the source
[4] = Cytotoxicity test (MTT assay) in HepG2; format: cell-based, human; settings: human
Procedure: as §3

[5] = Cytotoxicity test (MTT assay) in HUVEC; format: cell-based; settings: human, HUVEC 10 × 10^4 cells/well, survival inhibited 20%, read-out: Cytotoxicity IC20 Conc.
Procedure: as §1, §2

THLE-3 = experiment: Cytotoxicity test (MTT assay) in THLE-3; settings: read-out: Cytotoxicity IC20 Conc.; THLE-3 3 × 10^4 cells/well, 3 h; survival inhibited 20%
Procedure: as §1, §2

HK-2 [6] = settings: human, 24 h
Procedure: (§4) Human cell lines, BEAS-2B (ATCC, USA), JEG-3 (Korean Cell Line Bank, Korea) and HK-2 (Korean Cell Line Bank, Korea) were cultured in T 75 flask containing DMEM (Gibco-BRL, USA) supplemented with 10% FBS at the concentration of 5×10^5 cells/ml. […] Those drugs were dissolved in DMSO and water. The concentration of vehicle was up to 0.1% in every experiment.
(§5) MTT assay was performed with BEAS-2B, JEG-3, HK-2, THLE-3 and HUVEC according to the method of Mossman et al (J. Immunol. Methods, 65, 55-63, 1983). The cells (Table 2) in a 24-well plate were treated with each drug dissolved in DMSO or water. 48 hours later, 5 mg/ml of MTT (3-[4,5-dimethylthiazol-2-yl]-2,5-diphenyltetra zolium bromide) was added thereto, followed by culture at 37 for 3 hours. Then, the medium was eliminated and the formed formazan crystal was dissolved in 500 μl of DMSO. The mixture was aliquoted in a 96-well plate and OD54o was measured.
(§6) MTT assay was performed with BEAS-2B, JEG-3, HK-2 and HepG2 according to the method of Mossman et al (J. Immunol. Methods, 65, 55-63, 1983). The cells (Table 2) in a 24-well plate were treated with each drug dissolved in DMSO or water. 24 and 48 hours later, 5 mg/μl of MTT (3-[4,5-dimethylthiazol-2-yl]-2,5-diphenyltetra zolium bromide) was added thereto, followed by culture at 37 for 3 hours. […] The mixture was aliquoted in a 96-well plate and OD540 was measured.

JEG-3 [7] = settings: human, 48 h
Procedure: as §4, §5
(§7) MTT assay was performed with BEAS-2B, JEG-3, HK-2 and HepG2 according to the method of Mossman et al (J. Immunol. Methods, 65, 55-63, 1983). The cells (Table 2) in a 24-well plate were treated with each drug dissolved in DMSO or water. 24 and 48 hours later, 5 mg/μl of MTT (3-[4,5-dimethylthiazol-2-yl]-2,5-diphenyltetra zolium bromide) was added thereto, followed by culture at 37 for 3 hours. Then, the medium was eliminated and the formed formazan crystal was dissolved in 500 μl of DMSO. The mixture was aliquoted in a 96-well plate and OD540 was measured.

JEG-3 [8] = experiment: Cytotoxicity test (MTT assay) in JEG-3; settings: Table 11; JEG-3 3 × 10^4 cells/well, 48 h
Procedure: as §4, §5, §7

HK-2 [9] = experiment: Cytotoxicity test (MTT assay) in HK-2; settings: HK-2 2.3 × 10^4 cells/well, 24 h; survival inhibited 30%
Procedure: as §4, §5, §6

## O=[N+]([O-])c1ccc2c(c1)Cc1ccccc1-2 [2-nitrofluorene]
In vitro [1]
  IC20 at 3 h: 80.8 µM

## O=[N+]([O-])c1cc[n+]([O-])c2ccccc12 [4-nitroquinoline-N-oxide]
[2]
  IC20 at 3 h: 0.83 µM

## CC(=O)Nc1ccc(O)cc1 [Acetaminophene]
HepG2
  IC20: 11000 µM

## CCCCc1oc2ccccc2c1C(=O)c1cc(I)c(OCCN(CC)CC)c(I)c1 [Amiodarone]
In vitro [3]
  IC20 at 48 h: 29.4 µM

## c1ccc2c(c1)cc1ccc3cccc4ccc2c1c34 [Benzo(a)pyrene]
[4]
  IC20 at 48 h: 8.35 µM

## NC(=O)N1c2ccccc2C=Cc2ccccc21 [Carbamazepine]
In vitro [3]
  IC20 at 48 h: 324 µM

## COc1cccc2c1C(=O)c1c(O)c3c(c(O)c1C2=O)C[C@@](O)(C(C)=O)C[C@@H]3O[C@H]1C[C@H](N)[C@H](O)[C@H](C)O1 [Daunorubicin]
[5]
  IC20 at 48 h: 0.191 µg/mL (≈ 0.362 µM)

## COc1cccc2c1C(=O)c1c(O)c3c(c(O)c1C2=O)C[C@@](O)(C(=O)CO)C[C@@H]3O[C@H]1C[C@H](N)[C@H](O)[C@H](C)O1 [Doxorubicin]
[5]
  IC20 at 48 h: 0.083 µg/mL (≈ 0.153 µM)

## NC(=O)/C(=C\c1ccc([N+](=O)[O-])o1)c1ccco1 [Furylfuramide]
THLE-3
  IC20: 243 µM

## CC(C)Cc1ccc(C(C)C(=O)O)cc1 (stereo not shown) [Ibuprofen]
HK-2 [6]
  Cytotoxicity IC30 Conc.: 1650 µg/mL

## CN(Cc1cnc2nc(N)nc(N)c2n1)c1ccc(C(=O)N[C@@H](CCC(=O)O)C(=O)O)cc1 [Methotrexate]
JEG-3 [7]
  Cytotoxicity IC30 Conc.: 4750 µM
In vitro [3]
  IC20 at 48 h: 0.144 µM

## COS(C)(=O)=O [Methylmethanesulfonate, methylmethanesulfonate]
In vitro [1]
  IC20 at 3 h: 510 µM

## CN(N=O)C(N)=O [N-nitroso-N-methylurea]
[2]
  IC20 at 3 h: 2090 µM

## O=C1CN(/N=C/c2ccc([N+](=O)[O-])o2)C(=O)N1 [Nitrofurantoin]
In vitro [3]
  IC20 at 48 h: 89.5 µM

## O=C1CCC(N2C(=O)c3ccccc3C2=O)C(=O)N1 (stereo not shown) [Thalidomide]
JEG-3 [7]
  Cytotoxicity IC30 Conc.: 4283 µM

## CCCC(CCC)C(=O)O [Valproic acid]
JEG-3 [7]
  Cytotoxicity IC30 Conc.: 7380 µM

## CC(=O)CC(c1ccccc1)c1c(O)c2ccccc2oc1=O (stereo not shown) [Warfarin]
JEG-3 [8]
  Cytotoxicity IC30 Conc.: 8160 µM

## Gentamycin
HK-2 [9]
  Cytotoxicity IC30 Conc.: 3440 µg/mL
